Laboratory results from ChEMBL document CHEMBL4765362, “Thirty Years of HDAC Inhibitors: 2020 Insight and Hindsight” (J Med Chem, 2020).
Each block holds one compound with its values, some of them ahead of it.

Columns and labels:
Histone deacetylase 9 [1] = target: T1, Histone deacetylase 9 (Homo sapiens, UniProt Q9UKV0); experiment: Inhibition of C-terminal His-tagged human HDAC9 (604 to 1066 residues) expressed in baculovirus infected sf9 cells using carboxyfluorescein (FAM)-labeled acetylated peptide substrate by microfluidic capillary electrophoresis
Histone deacetylase 4 = Histone deacetylase 4 (Homo sapiens, UniProt P56524); experiment: Inhibition of human HDAC4 expressed in baculovirus infected sf9 cells using carboxyfluorescein (FAM)-labeled acetylated peptide substrate by microfluidic capillary electrophoresis
[2] = target: T2, Protein deacetylase HDAC6 (Homo sapiens, UniProt Q9UBN7); experiment: Inhibition of HDAC6 (unknown origin) using carboxyfluorescein (FAM)-labeled acetylated peptide substrate by microfluidic capillary electrophoresis
T2 sequence (Q9UBN7 whole entry): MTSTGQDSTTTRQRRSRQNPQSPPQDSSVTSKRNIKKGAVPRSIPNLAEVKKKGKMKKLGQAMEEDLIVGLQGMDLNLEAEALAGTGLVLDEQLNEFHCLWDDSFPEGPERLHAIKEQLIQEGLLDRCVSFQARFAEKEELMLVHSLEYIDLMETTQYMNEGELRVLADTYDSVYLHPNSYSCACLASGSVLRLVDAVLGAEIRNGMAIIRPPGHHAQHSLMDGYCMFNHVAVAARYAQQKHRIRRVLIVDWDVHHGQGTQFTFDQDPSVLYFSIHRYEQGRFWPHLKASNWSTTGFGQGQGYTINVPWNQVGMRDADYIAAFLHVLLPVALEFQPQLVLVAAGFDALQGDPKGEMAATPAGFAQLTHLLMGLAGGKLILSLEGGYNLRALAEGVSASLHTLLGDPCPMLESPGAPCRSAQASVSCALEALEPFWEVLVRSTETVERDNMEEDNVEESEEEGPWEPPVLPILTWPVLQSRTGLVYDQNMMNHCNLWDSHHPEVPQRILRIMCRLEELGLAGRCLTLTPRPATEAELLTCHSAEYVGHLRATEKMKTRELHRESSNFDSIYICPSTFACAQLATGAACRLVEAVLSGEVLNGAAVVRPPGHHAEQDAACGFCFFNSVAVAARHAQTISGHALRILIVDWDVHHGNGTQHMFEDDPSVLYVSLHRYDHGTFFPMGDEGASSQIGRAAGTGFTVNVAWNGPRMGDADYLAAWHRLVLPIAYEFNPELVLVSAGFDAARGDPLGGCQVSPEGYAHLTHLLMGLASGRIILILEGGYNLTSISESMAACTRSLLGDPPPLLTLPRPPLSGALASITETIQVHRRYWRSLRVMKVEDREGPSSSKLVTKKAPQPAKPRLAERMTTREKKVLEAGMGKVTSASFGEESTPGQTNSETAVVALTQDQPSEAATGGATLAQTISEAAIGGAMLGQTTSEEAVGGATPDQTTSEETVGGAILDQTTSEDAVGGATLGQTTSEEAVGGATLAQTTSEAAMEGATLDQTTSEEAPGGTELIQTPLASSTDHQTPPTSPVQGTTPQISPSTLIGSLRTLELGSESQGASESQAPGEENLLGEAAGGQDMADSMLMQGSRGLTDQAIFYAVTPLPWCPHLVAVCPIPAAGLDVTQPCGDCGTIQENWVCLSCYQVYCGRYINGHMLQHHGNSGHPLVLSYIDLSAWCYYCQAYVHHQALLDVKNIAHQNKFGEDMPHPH

Histone deacetylase 1 = Histone deacetylase 1 (Homo sapiens, UniProt Q13547); experiment: Inhibition of HDAC1 (unknown origin) using carboxyfluorescein (FAM)-labeled acetylated peptide substrate preincubated for 3 hrs by microfluidic capillary electrophoresis
Histone deacetylase 2 [3] = target: T3, Histone deacetylase 2 (Homo sapiens, UniProt Q92769); experiment: Inhibition of human HDAC2 expressed in Sf9 cells using carboxyfluorescein (FAM)-labeled acetylated peptide substrate preincubated for 3 hrs by microfluidic capillary electrophoresis
Histone deacetylase 7 [4] = target: T4, Histone deacetylase 7 (Homo sapiens, UniProt Q8WUI4); experiment: Inhibition of human N-terminal GST-tagged HDAC7 (518 to end residues) expressed in baculovirus infected sf9 cells using carboxyfluorescein (FAM)-labeled acetylated peptide substrate by microfluidic capillary electrophoresis
T4 sequence (Q8WUI4 whole entry): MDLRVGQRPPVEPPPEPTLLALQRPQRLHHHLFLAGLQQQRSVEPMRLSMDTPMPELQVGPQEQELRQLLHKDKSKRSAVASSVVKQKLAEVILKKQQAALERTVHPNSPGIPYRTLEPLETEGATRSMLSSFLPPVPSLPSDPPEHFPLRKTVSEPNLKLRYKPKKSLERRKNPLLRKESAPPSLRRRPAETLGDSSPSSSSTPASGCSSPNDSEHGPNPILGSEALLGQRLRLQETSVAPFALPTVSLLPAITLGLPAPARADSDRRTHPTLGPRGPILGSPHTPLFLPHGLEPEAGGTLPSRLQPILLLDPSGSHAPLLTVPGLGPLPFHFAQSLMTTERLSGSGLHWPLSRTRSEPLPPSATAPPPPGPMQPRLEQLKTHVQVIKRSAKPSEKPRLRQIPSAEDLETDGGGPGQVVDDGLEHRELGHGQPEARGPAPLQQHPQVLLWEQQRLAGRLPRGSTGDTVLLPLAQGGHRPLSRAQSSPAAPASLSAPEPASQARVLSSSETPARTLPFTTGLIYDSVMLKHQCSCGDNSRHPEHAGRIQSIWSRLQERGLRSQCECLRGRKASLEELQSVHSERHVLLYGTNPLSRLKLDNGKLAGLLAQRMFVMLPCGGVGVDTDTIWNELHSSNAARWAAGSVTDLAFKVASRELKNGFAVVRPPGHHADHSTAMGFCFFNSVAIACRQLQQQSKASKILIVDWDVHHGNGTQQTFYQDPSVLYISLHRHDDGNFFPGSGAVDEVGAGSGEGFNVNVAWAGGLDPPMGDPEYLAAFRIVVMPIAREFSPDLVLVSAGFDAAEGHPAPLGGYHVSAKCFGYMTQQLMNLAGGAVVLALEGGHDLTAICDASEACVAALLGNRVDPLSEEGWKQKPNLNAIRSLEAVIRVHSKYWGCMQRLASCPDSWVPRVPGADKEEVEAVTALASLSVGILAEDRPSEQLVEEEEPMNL

Histone deacetylase 5 [5] = target: T5, Histone deacetylase 5 (Homo sapiens, UniProt Q9UQL6); experiment: Inhibition of human HDAC5 using carboxyfluorescein (FAM)-labeled acetylated peptide substrate by microfluidic capillary electrophoresis
Histone deacetylase 8 [6] = target: T6, Histone deacetylase 8 (Homo sapiens, UniProt Q9BY41); experiment: Inhibition of recombinant human C-terminal His-tagged HDAC8 expressed in baculovirus infected sf9 cells using carboxyfluorescein (FAM)-labeled acetylated peptide substrate by microfluidic capillary electrophoresis
T6 sequence (Q9BY41 whole entry): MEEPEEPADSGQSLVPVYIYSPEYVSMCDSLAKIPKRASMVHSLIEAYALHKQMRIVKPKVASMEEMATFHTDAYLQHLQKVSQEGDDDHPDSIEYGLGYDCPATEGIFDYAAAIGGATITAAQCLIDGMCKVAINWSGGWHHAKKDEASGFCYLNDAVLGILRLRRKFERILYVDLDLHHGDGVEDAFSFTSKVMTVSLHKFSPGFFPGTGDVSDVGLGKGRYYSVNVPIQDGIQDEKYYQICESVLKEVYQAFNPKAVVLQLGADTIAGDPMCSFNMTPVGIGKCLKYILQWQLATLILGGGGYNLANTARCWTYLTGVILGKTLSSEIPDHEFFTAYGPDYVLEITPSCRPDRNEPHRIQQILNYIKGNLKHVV

Histone deacetylase 8 [7] = target: T6, Histone deacetylase 8; experiment: Inhibition of human full length recombinant HDAC8 using p53 (379 to 382 residues) (RHK(Ac)K(Ac)AMC as substrate preincubated for 5 to 10 mins followed by substrate addition and measured after 2 hrs by fluorescence method
[8] = target: T7, Polyamine deacetylase HDAC10 (Homo sapiens, UniProt Q969S8); experiment: Inhibition of human full length recombinant HDAC10 using p53 (379 to 382 residues) (RHKK(Ac)AMC) as substrate preincubated for 5 to 10 mins followed by substrate addition and measured after 2 hrs by fluorescence method
T7 sequence (Q969S8 whole entry): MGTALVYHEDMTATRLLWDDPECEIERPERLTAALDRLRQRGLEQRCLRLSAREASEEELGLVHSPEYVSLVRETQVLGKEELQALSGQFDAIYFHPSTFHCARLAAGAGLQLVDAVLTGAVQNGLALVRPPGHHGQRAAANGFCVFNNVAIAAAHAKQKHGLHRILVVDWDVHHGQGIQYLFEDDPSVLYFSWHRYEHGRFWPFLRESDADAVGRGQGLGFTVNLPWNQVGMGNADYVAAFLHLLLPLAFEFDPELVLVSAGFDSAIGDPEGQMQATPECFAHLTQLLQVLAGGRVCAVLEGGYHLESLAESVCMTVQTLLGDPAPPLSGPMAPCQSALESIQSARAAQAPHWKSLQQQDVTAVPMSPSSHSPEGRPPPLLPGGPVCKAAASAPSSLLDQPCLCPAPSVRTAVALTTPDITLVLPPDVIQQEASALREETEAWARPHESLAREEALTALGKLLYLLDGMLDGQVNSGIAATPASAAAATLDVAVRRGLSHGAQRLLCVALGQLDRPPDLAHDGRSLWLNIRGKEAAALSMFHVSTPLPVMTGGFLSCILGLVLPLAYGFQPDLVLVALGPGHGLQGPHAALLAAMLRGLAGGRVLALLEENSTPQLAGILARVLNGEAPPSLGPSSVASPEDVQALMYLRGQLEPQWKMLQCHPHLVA

[9] = target: Histone deacetylase 3/Nuclear receptor corepressor 2 (HDAC3/NCoR2) (Homo sapiens, UniProt O15379); experiment: Inhibition of human full length recombinant HDAC3/ NcoR2 using p53 (379 to 382 residues) (RHKK(Ac)AMC) as substrate preincubated for 5 to 10 mins followed by substrate addition and measured after 2 hrs by fluorescence method; assay type: protein-complex assay
Histone deacetylase 9 [10] = target: T1, Histone deacetylase 9; experiment: Inhibition of human full length recombinant HDAC9 using p53 (379 to 382 residues) Ac-LGK(TFA)-AMC as substrate preincubated for 5 to 10 mins followed by substrate addition and measured after 2 hrs by fluorescence method
Histone deacetylase 11 = target: T8, Histone deacetylase 11 (Homo sapiens, UniProt Q96DB2); experiment: Inhibition of human full length recombinant HDAC11 using p53 (379 to 382 residues) (RHKK(Ac)AMC) as substrate preincubated for 5 to 10 mins followed by substrate addition and measured after 2 hrs by fluorescence method
T8 sequence (Q96DB2 whole entry): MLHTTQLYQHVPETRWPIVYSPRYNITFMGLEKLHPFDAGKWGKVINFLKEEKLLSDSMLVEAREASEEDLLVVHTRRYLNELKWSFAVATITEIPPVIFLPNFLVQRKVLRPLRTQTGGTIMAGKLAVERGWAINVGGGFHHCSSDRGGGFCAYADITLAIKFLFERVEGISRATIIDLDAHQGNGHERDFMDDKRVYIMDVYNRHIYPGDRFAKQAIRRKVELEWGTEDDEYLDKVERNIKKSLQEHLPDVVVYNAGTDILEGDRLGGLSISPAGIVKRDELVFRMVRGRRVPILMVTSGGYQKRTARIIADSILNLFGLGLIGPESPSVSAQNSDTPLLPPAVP

Histone deacetylase 2 [11] = target: T3, Histone deacetylase 2
Histone deacetylase 5 [12] = target: T5, Histone deacetylase 5; experiment: Inhibition of human full length recombinant HDAC5 using p53 (379 to 382 residues) Ac-LGK(TFA)-AMC as substrate preincubated for 5 to 10 mins followed by substrate addition and measured after 2 hrs by fluorescence method
Histone deacetylase 7 [13] = target: T4, Histone deacetylase 7; experiment: Inhibition of human full length recombinant HDAC7 using p53 (379 to 382 residues) Ac-LGK(TFA)-AMC as substrate preincubated for 5 to 10 mins followed by substrate addition and measured after 2 hrs by fluorescence method
Homo sapiens [14] = organism: Homo sapiens; experiment: Selectivity ratio of IC50 for human N-terminal GST-tagged HDAC7 (518 to end residues) expressed in baculovirus infected sf9 cells to IC50 for HDAC6 (unknown origin)
Homo sapiens [15] = organism: Homo sapiens; experiment: Selectivity ratio of IC50 for recombinant human C-terminal His-tagged HDAC8 expressed in baculovirus infected sf9 cells to IC50 for HDAC6 (unknown origin)
Homo sapiens [16] = organism: Homo sapiens; experiment: Selectivity ratio of IC50 for human HDAC2 expressed in Sf9 cells to IC50 for HDAC6 (unknown origin)
Homo sapiens [17] = organism: Homo sapiens; experiment: Selectivity ratio of IC50 for human HDAC5 to IC50 for HDAC6 (unknown origin)
Homo sapiens [18] = organism: Homo sapiens; experiment: Selectivity ratio of IC50 for human C-terminal His-tagged HDAC3 (1 to 428 residues)/human N-terminal GST-tagged NcoR2 (395 to 489 residues) expressed in sf9 cells to IC50 for HDAC6 (unknown origin)
[19] = target: T2, Protein deacetylase HDAC6; experiment: Inhibition of HDAC6 (unknown origin) using acetyl-lysine tripeptide substrate as substrate preincubated for 24 hrs followed substrate addition and shaken for 5 secs and measured over 30 mins
Homo sapiens [20] = organism: Homo sapiens; experiment: Selectivity ratio of IC50 for human HDAC4 expressed in Sf9 cells to IC50 for HDAC6 (unknown origin)
Homo sapiens [21] = organism: Homo sapiens; experiment: Selectivity ratio of IC50 for HDAC1 (unknown origin) to IC50 for HDAC6 (unknown origin)
Homo sapiens [22] = organism: Homo sapiens; experiment: Selectivity ratio of IC50 for C-terminal His-tagged human HDAC9 (604 to 1066 residues) expressed in baculovirus infected sf9 cells to IC50 for HDAC6 (unknown origin)

T5 sequence (Q9UQL6 whole entry): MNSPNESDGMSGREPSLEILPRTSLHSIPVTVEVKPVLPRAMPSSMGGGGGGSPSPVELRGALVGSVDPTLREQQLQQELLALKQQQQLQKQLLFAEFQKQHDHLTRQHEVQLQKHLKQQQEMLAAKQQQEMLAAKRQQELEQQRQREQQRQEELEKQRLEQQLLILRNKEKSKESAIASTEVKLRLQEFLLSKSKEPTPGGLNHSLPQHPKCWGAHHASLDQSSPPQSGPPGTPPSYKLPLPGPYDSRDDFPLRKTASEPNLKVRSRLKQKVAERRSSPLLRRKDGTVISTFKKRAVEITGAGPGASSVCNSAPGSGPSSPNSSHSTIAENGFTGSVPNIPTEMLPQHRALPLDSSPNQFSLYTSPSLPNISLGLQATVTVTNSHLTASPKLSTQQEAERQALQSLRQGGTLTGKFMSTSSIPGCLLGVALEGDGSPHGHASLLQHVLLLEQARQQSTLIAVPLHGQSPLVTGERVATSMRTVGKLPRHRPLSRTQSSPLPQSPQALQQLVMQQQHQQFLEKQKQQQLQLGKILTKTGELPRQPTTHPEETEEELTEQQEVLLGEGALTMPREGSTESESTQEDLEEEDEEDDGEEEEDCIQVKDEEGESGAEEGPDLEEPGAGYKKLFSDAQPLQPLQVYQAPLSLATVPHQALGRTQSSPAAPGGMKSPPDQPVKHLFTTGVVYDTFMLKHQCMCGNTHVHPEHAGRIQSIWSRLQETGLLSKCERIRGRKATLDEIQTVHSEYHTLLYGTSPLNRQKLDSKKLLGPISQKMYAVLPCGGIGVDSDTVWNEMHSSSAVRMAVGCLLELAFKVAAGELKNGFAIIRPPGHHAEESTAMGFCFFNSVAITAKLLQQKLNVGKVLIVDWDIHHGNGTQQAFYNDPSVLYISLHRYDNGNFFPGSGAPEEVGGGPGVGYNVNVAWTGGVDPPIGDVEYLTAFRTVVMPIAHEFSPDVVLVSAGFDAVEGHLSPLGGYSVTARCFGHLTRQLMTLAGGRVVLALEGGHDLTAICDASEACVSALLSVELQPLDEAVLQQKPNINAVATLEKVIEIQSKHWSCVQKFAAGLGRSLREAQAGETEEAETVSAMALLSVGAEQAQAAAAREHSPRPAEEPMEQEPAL
T3 sequence (Q92769 whole entry): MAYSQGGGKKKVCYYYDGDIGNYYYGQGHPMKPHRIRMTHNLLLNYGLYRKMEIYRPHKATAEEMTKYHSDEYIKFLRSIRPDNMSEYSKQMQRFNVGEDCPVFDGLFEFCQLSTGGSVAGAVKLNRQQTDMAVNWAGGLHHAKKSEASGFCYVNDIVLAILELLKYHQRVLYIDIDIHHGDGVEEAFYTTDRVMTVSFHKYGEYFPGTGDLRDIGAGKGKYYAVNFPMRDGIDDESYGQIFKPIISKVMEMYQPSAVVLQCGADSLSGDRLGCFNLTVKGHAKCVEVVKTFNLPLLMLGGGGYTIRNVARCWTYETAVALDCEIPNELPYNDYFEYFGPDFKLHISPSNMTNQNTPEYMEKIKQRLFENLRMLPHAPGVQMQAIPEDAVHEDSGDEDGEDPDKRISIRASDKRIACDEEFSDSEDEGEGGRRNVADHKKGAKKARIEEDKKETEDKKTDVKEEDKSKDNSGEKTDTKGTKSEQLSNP
T1 sequence (Q9UKV0 whole entry, the tested form may be a part): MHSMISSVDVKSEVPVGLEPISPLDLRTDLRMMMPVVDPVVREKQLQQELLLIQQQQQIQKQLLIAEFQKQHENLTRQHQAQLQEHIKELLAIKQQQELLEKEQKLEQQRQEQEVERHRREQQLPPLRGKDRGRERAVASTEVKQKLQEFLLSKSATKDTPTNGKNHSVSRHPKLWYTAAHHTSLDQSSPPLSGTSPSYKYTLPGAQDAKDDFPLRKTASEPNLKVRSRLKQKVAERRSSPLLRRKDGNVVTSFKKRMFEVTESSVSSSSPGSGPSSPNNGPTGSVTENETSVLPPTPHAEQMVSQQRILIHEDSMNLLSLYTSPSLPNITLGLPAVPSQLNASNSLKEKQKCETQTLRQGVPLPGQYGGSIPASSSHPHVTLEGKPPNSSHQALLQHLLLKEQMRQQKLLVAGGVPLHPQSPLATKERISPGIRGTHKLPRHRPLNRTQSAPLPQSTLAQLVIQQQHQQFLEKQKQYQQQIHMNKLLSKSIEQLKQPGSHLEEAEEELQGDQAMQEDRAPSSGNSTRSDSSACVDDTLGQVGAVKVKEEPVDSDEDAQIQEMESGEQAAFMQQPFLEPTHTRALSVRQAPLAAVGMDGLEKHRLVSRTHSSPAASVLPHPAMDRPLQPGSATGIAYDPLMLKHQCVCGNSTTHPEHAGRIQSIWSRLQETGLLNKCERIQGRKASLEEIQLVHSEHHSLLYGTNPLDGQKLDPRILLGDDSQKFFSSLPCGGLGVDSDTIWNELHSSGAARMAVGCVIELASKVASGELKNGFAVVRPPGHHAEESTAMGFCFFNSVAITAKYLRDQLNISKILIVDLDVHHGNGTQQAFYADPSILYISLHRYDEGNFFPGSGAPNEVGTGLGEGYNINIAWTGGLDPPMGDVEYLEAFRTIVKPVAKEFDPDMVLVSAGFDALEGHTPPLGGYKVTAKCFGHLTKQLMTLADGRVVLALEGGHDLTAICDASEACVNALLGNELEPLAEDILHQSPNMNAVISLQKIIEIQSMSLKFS
Chain of Histone deacetylase 4 (P56524 whole entry): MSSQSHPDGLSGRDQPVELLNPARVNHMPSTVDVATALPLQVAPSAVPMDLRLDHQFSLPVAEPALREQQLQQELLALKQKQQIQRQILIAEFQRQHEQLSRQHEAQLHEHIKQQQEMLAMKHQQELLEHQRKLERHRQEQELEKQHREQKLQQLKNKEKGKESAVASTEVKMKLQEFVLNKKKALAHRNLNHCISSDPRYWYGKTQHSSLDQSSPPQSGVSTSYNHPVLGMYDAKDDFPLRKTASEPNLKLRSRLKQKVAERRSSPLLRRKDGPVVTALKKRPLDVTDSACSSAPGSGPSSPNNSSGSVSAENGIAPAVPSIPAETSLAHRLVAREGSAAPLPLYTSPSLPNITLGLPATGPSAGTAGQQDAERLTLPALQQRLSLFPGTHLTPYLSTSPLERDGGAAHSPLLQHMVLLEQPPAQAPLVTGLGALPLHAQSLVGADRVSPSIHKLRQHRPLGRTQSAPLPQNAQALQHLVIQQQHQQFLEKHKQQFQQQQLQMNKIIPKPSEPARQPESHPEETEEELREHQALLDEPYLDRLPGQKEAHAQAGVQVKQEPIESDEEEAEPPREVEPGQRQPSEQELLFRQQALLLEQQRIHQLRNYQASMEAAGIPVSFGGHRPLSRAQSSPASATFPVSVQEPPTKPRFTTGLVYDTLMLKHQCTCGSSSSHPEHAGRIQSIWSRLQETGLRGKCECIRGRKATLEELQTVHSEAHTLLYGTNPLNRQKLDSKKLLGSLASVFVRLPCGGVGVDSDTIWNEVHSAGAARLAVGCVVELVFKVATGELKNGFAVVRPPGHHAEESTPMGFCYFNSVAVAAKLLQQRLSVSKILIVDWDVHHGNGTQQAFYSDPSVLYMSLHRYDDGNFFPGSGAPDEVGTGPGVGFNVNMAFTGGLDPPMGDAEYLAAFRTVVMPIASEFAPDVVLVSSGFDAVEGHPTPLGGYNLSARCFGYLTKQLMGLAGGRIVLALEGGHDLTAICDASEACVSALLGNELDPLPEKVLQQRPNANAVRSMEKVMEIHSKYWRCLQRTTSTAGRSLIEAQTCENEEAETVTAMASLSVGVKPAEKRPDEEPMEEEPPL
Chain of Histone deacetylase 1 (Q13547 whole entry): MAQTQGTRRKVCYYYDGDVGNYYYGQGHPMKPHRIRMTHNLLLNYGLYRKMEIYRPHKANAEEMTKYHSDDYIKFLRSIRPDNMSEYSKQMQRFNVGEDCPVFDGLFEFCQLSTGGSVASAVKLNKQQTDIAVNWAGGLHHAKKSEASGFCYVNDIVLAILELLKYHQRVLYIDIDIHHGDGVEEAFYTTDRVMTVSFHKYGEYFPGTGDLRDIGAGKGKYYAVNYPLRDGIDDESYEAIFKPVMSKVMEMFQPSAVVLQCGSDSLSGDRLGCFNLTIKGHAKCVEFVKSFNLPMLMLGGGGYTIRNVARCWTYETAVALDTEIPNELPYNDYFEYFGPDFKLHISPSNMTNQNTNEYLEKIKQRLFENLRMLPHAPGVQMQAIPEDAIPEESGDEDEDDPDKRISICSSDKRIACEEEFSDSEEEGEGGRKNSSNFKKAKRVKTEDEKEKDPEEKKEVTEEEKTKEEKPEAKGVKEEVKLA

- IC50 (Histone deacetylase 9 [1]): > 30 µM
- IC50 (Histone deacetylase 4): > 30 µM
- IC50 [2]: > 30 µM
- IC50 (Histone deacetylase 1): 1 µM
- IC50 (Histone deacetylase 2 [3]): 1 µM
- IC50 (Histone deacetylase 7 [4]): > 30 µM
- IC50 (Histone deacetylase 5 [5]): > 30 µM
- IC50 (Histone deacetylase 8 [6]): > 30 µM
SMILES: CC(=O)Nc1ccc(C(=O)Nc2ccc(F)cc2N)cc1

- IC50 (Histone deacetylase 8 [7]): 4 µM
- IC50 [8]: 26 µM
- IC50 [9]: 30 µM
- IC50 (Histone deacetylase 9 [10]): 4 µM
- IC50 (Histone deacetylase 11): 6 µM
- IC50 (Histone deacetylase 2 [11]): 33 µM
- IC50 (Histone deacetylase 5 [12]): 4 µM
- IC50 (Histone deacetylase 7 [13]): 5 µM
SMILES: O=C(NO)c1ccc(CN2CCCc3cc(Cl)ccc32)cc1

- Ratio IC50 (Homo sapiens [17]): > 250
- IC50 [19]: 0.003 µM
- Ratio IC50 (Homo sapiens [21]): > 250
SMILES: O=C(NO)c1cnc(C2(c3ccccc3)CCC(F)(F)CC2)nc1
- Ratio IC50 (Homo sapiens [14]): > 250
- Ratio IC50 (Homo sapiens [15]): > 250
- Ratio IC50 (Homo sapiens [16]): > 250
- Ratio IC50 (Homo sapiens [18]): > 250
- Ratio IC50 (Homo sapiens [20]): > 250
- Ratio IC50 (Homo sapiens [22]): > 250
